Source: patent publication US9061041B2, “2′-substituted nucleoside derivatives and methods of use thereof for the treatment of viral diseases” (Merck Sharp & Dohme Corp., priority 2011, dated 2015)
Like-named read-outs stand apart in the source and are kept apart here.

What was measured:
replicon cells (1b-Con1) [1] = assay: Replicon activity assay (1b-Con1); type: cell-based, HCV; conditions: Hepatitis C virus, 72 h, three days post-dosing
replicon cells (1b-Con1) [2] = assay: Cytotoxicity MTS assay in replicon cells; conditions: CC50, MTS assay, three days post dosing
HCV replicon (1b) cells = assay: Cell-based HCV replicon assay
Description: To measure cell-based anti-HCV activity of selected compounds of the present invention, replicon cells were seeded at 5000 cells/well in 96-well collagen I-coated Nunc plates in the presence of the test compound. […]. Cells were harvested on day 3 by the addition of 1× cell lysis buffer (Ambion cat #8721). The replicon RNA level was measured using real time PCR (Taqman assay). The amplicon was located in 5B. The PCR primers were: 5B.2F, […] (SEQ ID. NO. 1); 5B.2R, […] (SEQ ID. NO. 2); the probe sequence was FAM-labeled […] (SEQ ID. NO. 3). GAPDH RNA was used as endogenous control and was amplified in the same reaction as NS5B (multiplex PCR) using primers and VIC-labeled probe recommended by the manufacturer (PE Applied Biosystem). The real-time RT-PCR reactions were run on ABI PRISM 7900HT Sequence Detection System using the following program: 48° C. for 30 minutes, 95° C. for 10 minutes, 40 cycles of 95° C. for 15 sec, 60° C. for 1 minute. The ΔCT values (CT5B-CTGAPDH) were plotted against the concentration of test compound and fitted to the sigmoid dose-response model using XLfit4 (MDL). […]; Alternatively, to quantitate the absolute amount of replicon RNA, a standard curve was established by including serially diluted T7 transcripts of replicon RNA in the Taqman assay. All Taqman reagents were from PE Applied Biosystems. Such an assay procedure was described in detail in e.g. Malcolm et al., Antimicrobial Agents and Chemotherapy 50: 1013-1020 (2006).

[3] = Hepatitis C virus, 72 h, replicon RNA level by real time PCR, cells harvested on day 3
[4] = replicon RNA level by real time PCR, cells harvested on day 3

## CC(C)OC(=O)[C@H](C)NP(=O)(OC[C@H]1O[C@@H](n2ccc(N)nc2=O)[C@](C)(N)C1O)Oc1ccccc1 (stereo partly drawn)
Replicon cells (1b-Con1) [1]
  EC50: 5.5 µM
Replicon cells (1b-Con1) [2]
  Cytotoxicity: >100 µM

## C#C[C@]1(C)[C@H](O)[C@@H](COP(=O)(N[C@@H](C)C(=O)OC(C)C)Oc2ccccc2)O[C@H]1n1ccc(=O)[nH]c1=O (stereo partly drawn)
Replicon cells (1b-Con1) [1]
  EC50: 2.3 µM
Replicon cells (1b-Con1) [2]
  Cytotoxicity: >100 µM

## COc1nc(N)nc2c1ncn2[C@@H]1O[C@H](COP(=O)(N[C@@H](C)C(=O)OCC(C)(C)C)Oc2ccccc2)C(O)[C@@]1(C)N (stereo partly drawn)
Replicon cells (1b-Con1) [1]
  EC50: 0.9 µM
Replicon cells (1b-Con1) [2]
  Cytotoxicity: >100 µM

## C[C@H](NP(=O)(OC[C@H]1O[C@@H](n2ccc(=O)[nH]c2=O)[C@](C)(N)C1O)Oc1ccccc1)C(=O)OCC(C)(C)C (stereo partly drawn)
Replicon cells (1b-Con1) [1]
  EC50: 0.7 µM
Replicon cells (1b-Con1) [2]
  Cytotoxicity: >100 µM

## C[C@H](NP(=O)(OC[C@H]1O[C@@H](n2ccc(N)nc2=O)[C@](C)(N)C1O)Oc1ccccc1)C(=O)OCC(C)(C)C (stereo partly drawn)
Replicon cells (1b-Con1) [1]
  EC50: 4.4 µM
Replicon cells (1b-Con1) [2]
  Cytotoxicity: >100 µM

## CC(C)COC(=O)[C@H](C)NP(=O)(OC[C@H]1O[C@@H](n2ccc(N)nc2=O)[C@](C)(N)[C@@H]1O)Oc1ccccc1 (stereo partly drawn)
Replicon cells (1b-Con1) [1]
  EC50: 6.6 µM
Replicon cells (1b-Con1) [2]
  Cytotoxicity: 50 µM

## CCOc1nc(N)nc2c1ncn2[C@@H]1O[C@H](COP(=O)(N[C@@H](C)C(=O)OC)Oc2ccccc2)C(O)[C@@]1(C)N (single isomer, unassigned) [Compound 21]
HCV replicon (1b) cells; [3]
  EC50: 2.6 µM

## COc1nc(N)nc2c1ncn2[C@@H]1O[C@H](COP(=O)(N[C@@H](C)C(=O)OC(C)C)Oc2ccccc2)C(O)[C@@]1(C)N (single isomer, unassigned) [Compound 22]
HCV replicon (1b) cells; [4]
  EC50: 2.6 µM

## COc1nc(N)nc2c1ncn2[C@@H]1O[C@H](COP(=O)(N[C@@H](C)C(=O)OC(C)C)Oc2ccccc2)C(O)[C@@]1(C)N (single isomer, unassigned) [Compound 23]
HCV replicon (1b) cells; [4]
  EC50: > 100 µM

## CCOC(=O)[C@H](C)NP(=O)(OC[C@H]1O[C@@H](n2cnc3c(OC)nc(N)nc32)[C@](C)(N)C1O)Oc1ccccc1 (single isomer, unassigned) [Compound 28]
HCV replicon (1b) cells; [3]
  EC50: 0.1 µM

## CCOC(=O)[C@H](C)NP(=O)(OC[C@H]1O[C@@H](n2cnc3c(OC)nc(N)nc32)[C@](C)(N)C1O)Oc1ccccc1 (single isomer, unassigned) [Compound 29]
HCV replicon (1b) cells; [4]
  EC50: 0.1 µM

## COc1nc(N)nc2c1ncn2[C@@H]1O[C@H](COP(=O)(N[C@@H](C)C(=O)OCC(C)(C)C)Oc2ccccc2)C(O)[C@@]1(C)N (single isomer, unassigned) [Compound 52]
HCV replicon (1b) cells; [4]
  EC50: 0.9 µM

## COc1nc(N)nc2c1ncn2[C@@H]1O[C@H](COP(=O)(N[C@@H](C)C(=O)OCC(C)(C)C)Oc2ccccc2)C(O)[C@@]1(C)N (single isomer, unassigned) [Compound 53]
HCV replicon (1b) cells; [4]
  EC50: 2.7 µM

## CCOc1nc(N)nc2c1ncn2[C@@H]1O[C@H](COP(=O)(N[C@@H](C)C(=O)OCC(C)(C)C)Oc2ccccc2)C(O)[C@@]1(C)N (single isomer, unassigned) [Compound 54]
HCV replicon (1b) cells; [4]
  EC50: 1.5 µM

## CCOc1nc(N)nc2c1ncn2[C@@H]1O[C@H](COP(=O)(N[C@@H](C)C(=O)OCC(C)(C)C)Oc2ccccc2)C(O)[C@@]1(C)N (single isomer, unassigned) [Compound 55]
HCV replicon (1b) cells; [4]
  EC50: 3.1 µM

## C[C@H](NP(=O)(OC[C@H]1O[C@@H](n2ccc(=O)[nH]c2=O)[C@](C)(N)C1O)Oc1ccccc1)C(=O)OCC(C)(C)C (single isomer, unassigned) [Compound 56]
HCV replicon (1b) cells; [4]
  EC50: 0.7 µM

## C[C@H](NP(=O)(OC[C@H]1O[C@@H](n2ccc(=O)[nH]c2=O)[C@](C)(N)C1O)Oc1ccccc1)C(=O)OCC(C)(C)C (single isomer, unassigned) [Compound 57]
HCV replicon (1b) cells; [4]
  EC50: 9.9 µM

## C[C@H](NP(=O)(OC[C@H]1O[C@@H](n2ccc(N)nc2=O)[C@](C)(N)C1O)Oc1ccccc1)C(=O)OCC(C)(C)C (single isomer, unassigned) [Compound 58]
HCV replicon (1b) cells; [4]
  EC50: 4.4 µM

## C[C@H](NP(=O)(OC[C@H]1O[C@@H](n2ccc(N)nc2=O)[C@](C)(N)C1O)Oc1ccccc1)C(=O)OCC(C)(C)C (single isomer, unassigned) [Compound 59]
HCV replicon (1b) cells; [4]
  EC50: 11 µM

## CC(C)COC(=O)[C@H](C)NP(=O)(OC[C@H]1O[C@@H](n2ccc(N)nc2=O)[C@](C)(N)[C@@H]1O)Oc1ccccc1 (single isomer, unassigned) [Compound 64]
HCV replicon (1b) cells; [3]
  EC50: 6.6 µM

## CC(C)COC(=O)[C@H](C)NP(=O)(OC[C@H]1O[C@@H](n2ccc(=O)[nH]c2=O)[C@](C)(N)[C@@H]1O)Oc1ccccc1 (single isomer, unassigned) [Compound 67]
HCV replicon (1b) cells; [3]
  EC50: 6.8 µM

## C[C@@]1(N)[C@H](O)[C@@H](CO)O[C@H]1n1ccc(N)nc1=O [Compound 1]
HCV replicon (1b) cells; [4]
  EC50: 100 µM

## C[C@@]1(S(C)(=O)=O)[C@H](O)[C@@H](CO)O[C@H]1n1ccc(N)nc1=O [Compound 3]
HCV replicon (1b) cells
  EC50: > 100 µM

## C[C@@]1(n2ccnn2)[C@H](O)[C@@H](CO)O[C@H]1n1ccc(N)nc1=O [Compound 4]
HCV replicon (1b) cells
  EC50: > 100 µM

## COC(=O)[C@H](C)NP(=O)(OC[C@H]1O[C@@H](n2ccc(N)nc2=O)[C@](C)(n2ccnn2)[C@@H]1O)Oc1ccccc1 (stereo partly drawn) [Compound 5]
HCV replicon (1b) cells; [4]
  EC50: 90 µM

## C[C@@]1(Cl)[C@H](O)[C@@H](CO)O[C@H]1n1ccc(N)nc1=O [Compound 6]
HCV replicon (1b) cells
  EC50: 10 µM

## COC(=O)[C@H](C)NP(=O)(OC[C@H]1O[C@@H](n2ccc(N)nc2=O)[C@](C)(SC)[C@@H]1O)Oc1ccccc1 (stereo partly drawn) [Compound 7]
HCV replicon (1b) cells; [4]
  EC50: 29 µM

## COC(=O)[C@H](C)NP(=O)(OC[C@H]1O[C@@H](n2ccc(N)nc2=O)[C@](C)(Cl)[C@@H]1O)Oc1ccccc1 (stereo partly drawn) [Compound 8]
HCV replicon (1b) cells; [3]
  EC50: 34 µM

## CC(=O)N[C@]1(C)[C@H](O)[C@@H](CO)O[C@H]1n1ccc(N)nc1=O [Compound 9]
HCV replicon (1b) cells
  EC50: 100 µM

## CCOc1nc(N)nc2c1ncn2[C@@H]1O[C@H](CO)[C@@H](O)[C@@]1(C)N [Compound 10]
HCV replicon (1b) cells
  EC50: 29 µM

## CCOc1nc(N)nc2c1ncn2[C@@H]1O[C@H](COP(=O)(N[C@@H](C)C(=O)OC)Oc2ccccc2)C(O)[C@@]1(C)NC(N)=O (stereo partly drawn) [Compound 12]
HCV replicon (1b) cells; [3]
  EC50: > 100 µM

## COc1nc(N)nc2c1ncn2[C@@H]1O[C@H](CO)[C@@H](O)[C@@]1(C)N [Compound 15]
HCV replicon (1b) cells; [3]
  EC50: > 100 µM

## C[C@@]1(N)[C@H](O)[C@@H](CO)O[C@H]1n1ccc(=O)[nH]c1=O [Compound 16]
HCV replicon (1b) cells; [3]
  EC50: > 100 µM

## C[C@@]1(N)[C@H](O)[C@@H](CO)O[C@H]1n1cnc2c(N3CCC3)nc(N)nc21 [Compound 17]
HCV replicon (1b) cells; [3]
  EC50: > 100 µM

## CCOc1nc(N)nc2c1ncn2[C@@H]1O[C@H](COP(=O)(N[C@@H](C)C(=O)OC)Oc2ccccc2)C(O)[C@@]1(C)N (stereo partly drawn) [Compound 20]
HCV replicon (1b) cells; [4]
  EC50: 2.5 µM

## CC(C)OC(=O)[C@H](C)NP(=O)(OC[C@H]1O[C@@H](n2ccc(=O)[nH]c2=O)[C@](C)(N)[C@@H]1O)Oc1ccccc1 (stereo partly drawn) [Compound 24]
HCV replicon (1b) cells; [4]
  EC50: 5 µM

## CCOc1nc(N)nc2c1ncn2[C@@H]1O[C@H](COP(=O)(N[C@@H](C)C(=O)OC)Oc2ccccc2)[C@@H](O)[C@@]1(C)SC (stereo partly drawn) [Compound 43]
HCV replicon (1b) cells; [3]
  EC50: 38 µM

## CCCCOC(=O)[C@H](C)NP(=O)(OC[C@H]1O[C@@H](n2cnc3c(OCC)nc(N)nc32)[C@](C)(SC)[C@@H]1O)Oc1cccc2ccccc12 (stereo partly drawn) [Compound 44]
HCV replicon (1b) cells; [3]
  EC50: 24 µM

## CC(C)OP1(=O)OC[C@H]2O[C@@H](n3ccc(N)nc3=O)[C@](C)(N)[C@@H]2O1 (stereo partly drawn) [Compound 78]
HCV replicon (1b) cells; [3]
  EC50: 30 µM

## C[C@@]1(N)[C@@H]2OP(=O)(OC3CCC3)OC[C@H]2O[C@H]1n1ccc(N)nc1=O (stereo partly drawn) [Compound 79]
HCV replicon (1b) cells; [3]
  EC50: 2.8 µM

## C[C@@]1(C(N)=O)[C@H](O)[C@@H](CO)O[C@H]1n1ccc(N)nc1=O [Compound 85]
HCV replicon (1b) cells; [4]
  EC50: 45 µM

## COc1nc(N)nc2c1ncn2[C@@H]1O[C@@H]2COP(=O)(OC(C)C)O[C@H]2[C@@]1(C)N (stereo partly drawn) [Compound 98]
HCV replicon (1b) cells; [4]
  EC50: 43 µM

## CC(C)OC(=O)[C@H](C)NP(=O)(OC[C@H]1O[C@@H](n2ccc(=O)[nH]c2=O)[C@](C)(N)[C@@H]1O)Oc1ccccc1 (stereo partly drawn) [drawing 239]
Replicon cells (1b-Con1) [1]
  EC50: 3.1 µM
Replicon cells (1b-Con1) [2]
  Cytotoxicity: >100 µM

## COc1nc(N)nc2c1ncn2[C@@H]1O[C@@H]2COP(=O)(OC(C)C)O[C@H]2[C@@]1(C)N (stereo partly drawn) [drawing 240]
Replicon cells (1b-Con1) [1]
  EC50: 43.7 µM
Replicon cells (1b-Con1) [2]
  Cytotoxicity: >100 µM

## CCOc1nc(N)nc2c1ncn2[C@@H]1O[C@H](COP(=O)(N[C@@H](C)C(=O)OC)Oc2ccccc2)[C@@H](O)[C@@]1(C)SC (stereo partly drawn) [drawing 242]
Replicon cells (1b-Con1) [1]
  EC50: 38 µM
Replicon cells (1b-Con1) [2]
  Cytotoxicity: >100 µM

## CCOc1nc(N)nc2c1ncn2[C@@H]1O[C@H](COP(=O)(N[C@@H](C)C(=O)OC)Oc2ccccc2)C(O)[C@@]1(C)N (stereo partly drawn) [drawing 243]
Replicon cells (1b-Con1) [1]
  EC50: 2.5 µM
Replicon cells (1b-Con1) [2]
  Cytotoxicity: >100 µM

## C[C@@]1(N)[C@@H]2OP(=O)(OC3CCC3)OC[C@H]2O[C@H]1n1ccc(N)nc1=O (stereo partly drawn) [drawing 247]
Replicon cells (1b-Con1) [1]
  EC50: 2.8 µM
Replicon cells (1b-Con1) [2]
  Cytotoxicity: >50 µM

## CCOC(=O)[C@H](C)NP(=O)(OC[C@H]1O[C@@H](n2cnc3c(OC)nc(N)nc32)[C@](C)(N)[C@@H]1O)Oc1ccccc1 (stereo partly drawn) [drawing 248]
Replicon cells (1b-Con1) [1]
  EC50: 0.1 µM
Replicon cells (1b-Con1) [2]
  Cytotoxicity: >100 µM
